Experimental data reported in patent US20230027066A1 (Urovant Sciences GmbH, priority 2019, published 2023).
Several values for one entry are separate records, joined by “and”; a condition that tells them apart may be missing. Equal values may be shown once.

Assays:
[1] = dose-Cmax and dose-AUC models / log-log regression from Phase 1 data
Protocol: In order to contextualize PK parameters of a 75 mg dose, dose-Cmax and dose-AUC models were created using data from Phase 1 studies.

[2] = Phase 1 program safety (16 Phase 1 studies); type: in vivo; details: single doses 2 to 600 mg, multiple doses 25 to 400 mg up to 28 days
Description: Safety data from 16 Phase 1 studies, which include 15 completed Phase 1 studies and 1 study that was terminated early (this study was terminated for reasons unrelated to efficacy or safety) was collected.

[3] = vibegron exposure in special populations (renal impairment, CYP3A/P-gp inhibitor, elderly, females); type: in vivo, human
CYP2D6 = CYP2D6 (Homo sapiens, UniProt P10635); assay: drug interaction study of vibegron and tolterodine (sensitive CYP2D6 substrate); details: vibegron 100 mg QD at steady state
[4] = Phase 1 multiple-dose study in healthy subjects, maximum MA4 heart rate; type: in vivo, human; details: for Maximum MA4 HR (maximum change from baseline in moving average of heart rate over 4 hours postdose), LS mean (90% CI) / Maximum MA4 HR, difference from placebo (90% CI): Day 14
Protocol: More intensive assessments of heart rate and blood pressure were performed in healthy volunteers in several Phase 1 studies. […] Doses ranged from 25 to 400 mg once daily for 7 to 28 days depending on the cohort. Least squares mean and 90% confidence intervals of maximum change from baseline in moving average of heart rate over 4 hours postdose (MA4 HR) are presented in Table 7.

[5] = Phase 1 ABPM study, ambulatory blood pressure and heart rate in OAB subjects, 28 days; type: in vivo, human
Protocol: The objectives and endpoints were as described below. “Mean daytime” ABPM endpoints are calculated as the mean of all valid ABPM readings while the subject was awake during the 24-hour monitoring session. “Mean 24 hr” ABPM endpoints are calculated as the mean of all valid ABPM readings during the 24 hr monitoring session.
For the analysis of the ABPM endpoints (CFB to Day 29 of systolic and diastolic blood pressure, and heart rate), a generalized linear model (GLM) was used. […] The analysis model for each efficacy endpoint included terms for treatment, age group (≤55 vs >55 years), sex (Male vs Female), and pre-existing hypertension (Yes vs No), and baseline score.
Primary inferences were drawn from treatment differences for the CFB at Day 29 from the GLM. […] To test the primary hypothesis in Section 85, the upper limit of the two-sided 90% confidence interval was compared to 3.5, and the null hypothesis was rejected if the upper limit was strictly less than 3.5.
The 24-mean ambulatory baseline for systolic and diastolic blood pressure, and heart rate was the arithmetic mean of all valid measurements between the time of cuff-fitting on Day −1 to cuff-removal on Day 1. The 24-hour mean at Day 29 was arithmetic mean of all valid measurements between the time of cuff-fitting on Day 28 to cuff removal on Day 29.
The maximum SBP, DBP and HR in the tmax window at baseline was the maximum of the hourly means of valid measurements from 0.5 to 6.5 hours after the time of cuff fitting on Day −1. On Day 28, the maximum SBP, DBP and HR in the tmax window was the maximum of the hourly means of valid measurements from 0.5 to 6.5 hours after dose.
The mean daytime ambulatory baseline for systolic and diastolic blood pressure, and heart rate was the arithmetic mean of all measurements taken during the time interval in which the subject was awake. The same definition was applied to Day 29 measurements.

[6] = drug interaction study of vibegron and rifampin, pharmacokinetics; type: in vivo, human
[7] = estimated 75 mg vs 200 mg single dose
[8] = estimated 75 mg vs 400 mg single dose
[9] = vibegron 75 mg/day, 4 weeks, full analysis set
[10] = vibegron 75 mg single dose + rifampin 600 mg QD
[11] = vibegron 75 mg single dose alone

Chain of CYP2D6 (P10635 whole entry): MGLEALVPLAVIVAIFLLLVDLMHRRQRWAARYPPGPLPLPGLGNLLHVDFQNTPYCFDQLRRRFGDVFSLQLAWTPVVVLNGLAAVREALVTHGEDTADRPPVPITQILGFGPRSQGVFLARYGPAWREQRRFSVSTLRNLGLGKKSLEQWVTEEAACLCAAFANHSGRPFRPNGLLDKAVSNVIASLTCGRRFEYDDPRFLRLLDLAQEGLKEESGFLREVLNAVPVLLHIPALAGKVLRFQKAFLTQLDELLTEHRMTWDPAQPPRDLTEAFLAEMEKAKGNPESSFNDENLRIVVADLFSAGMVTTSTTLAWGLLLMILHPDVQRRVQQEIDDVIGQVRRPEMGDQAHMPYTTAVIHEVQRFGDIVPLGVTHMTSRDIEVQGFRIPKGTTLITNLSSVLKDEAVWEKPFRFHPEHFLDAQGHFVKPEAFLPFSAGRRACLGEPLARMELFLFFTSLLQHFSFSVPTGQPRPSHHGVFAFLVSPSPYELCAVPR

O=C(Nc1ccc(C[C@@H]2CC[C@H]([C@H](O)c3ccccc3)N2)cc1)[C@@H]1CCc2nccc(=O)n21 [Vibegron, (6S)-N-[4-[[(2S,5R)−5-[(R)-hydroxy(phenyl)methyl]pyrrolidin−2-yl]methyl]phenyl]−4-oxo−7,8-dihydro−6H-pyrrolo[1,2-a]pyrimidine−6-carboxamide]
AUC of 75 mg dose lower than 200 mg single dose [1, 7]: ~2 fold
Cmax of 75 mg dose lower than 200 mg single dose [1, 7]: approximately 3.3 fold
AUC of 75 mg dose lower than 400 mg single dose [1, 8]: ~6 fold
Cmax of 75 mg dose lower than 400 mg single dose [1, 8]: ~9.2 fold
increase in Cmax with increase in dose from 50 to 100 mg ([1]; vibegron 50 vs 100 mg): ~3 fold
reduction in Cmax with a 25% reduction in dose (100 mg to 75 mg) ([1]; vibegron 75 vs 100 mg): ~40%
tolerability across the Phase 1 program [2]: generally well tolerated
higher Cmax in elderly and females than healthy young males ([3]; elderly and females): 50-70%
mean increase in AUC in subjects with moderate renal impairment vs normal renal function ([3]; moderate renal impairment): 1.6 fold
inhibition of CYP2D6 (conclusion from tolterodine interaction study) (CYP2D6): does not inhibit CYP2D6
Maximum MA4 HR (maximum change from baseline in moving average of heart rate over 4 hours postdose), LS mean (90% CI) ([4]; vibegron 25 mg once daily): 1.47 (−3.24, 6.17) bpm
Maximum MA4 HR, difference from placebo (90% CI) ([4]; vibegron 25 mg once daily): −1.60 (−7.09, 3.88) bpm
Maximum MA4 HR (maximum change from baseline in moving average of heart rate over 4 hours postdose), LS mean (90% CI) ([4]; vibegron 50 mg once daily): 1.50 (−2.79, 5.79) bpm
Maximum MA4 HR, difference from placebo (90% CI) ([4]; vibegron 50 mg once daily): −1.57 (−6.70, 3.56) bpm
maximum MA4 HR, difference from placebo ([4]; vibegron 100 mg): < 1 bpm
Maximum MA4 HR (maximum change from baseline in moving average of heart rate over 4 hours postdose), LS mean (90% CI) ([4]; vibegron 100 mg once daily): 3.28 (−1.02, 7.57) bpm
Maximum MA4 HR, difference from placebo (90% CI) ([4]; vibegron 100 mg once daily): 0.21 (−4.93, 5.34) bpm
Maximum MA4 HR (maximum change from baseline in moving average of heart rate over 4 hours postdose), LS mean (90% CI) ([4]; vibegron 150 mg once daily): 3.17 (−1.13, 7.46) bpm
Maximum MA4 HR, difference from placebo (90% CI) ([4]; vibegron 150 mg once daily): 0.10 (−5.04, 5.23) bpm
Maximum MA4 HR (maximum change from baseline in moving average of heart rate over 4 hours postdose), LS mean (90% CI) ([4]; vibegron 200 mg once daily): 5.67 (0.96, 10.37) bpm
Maximum MA4 HR, difference from placebo (90% CI) ([4]; vibegron 200 mg once daily): 2.60 (−2.89, 8.08) bpm
Maximum MA4 HR (maximum change from baseline in moving average of heart rate over 4 hours postdose), LS mean (90% CI) ([4]; vibegron 300 mg once daily): 9.06 (4.76, 13.35) bpm
Maximum MA4 HR, difference from placebo (90% CI) ([4]; vibegron 300 mg once daily): 5.98 (0.85, 11.12) bpm
Maximum MA4 HR (maximum change from baseline in moving average of heart rate over 4 hours postdose), LS mean (90% CI) ([4]; vibegron 400 mg once daily): 10.33 (6.04, 14.63) bpm
Maximum MA4 HR, difference from placebo (90% CI) ([4]; vibegron 400 mg once daily): 7.26 (2.13, 12.39) bpm
ABPM Max (0.5-6.5 h) DBP Change from Baseline to Day 28, LSMean ([5]; 75 mg, FAS): 0.63 mmHg
ABPM Max (0.5-6.5 h) DBP Change from Baseline to Day 28, Treatment Difference Vibegron-Placebo ([5]; 75 mg, FAS): 1.16 mmHg
ABPM Max (0.5-6.5 h) HR Change from Baseline to Day 28, LSMean ([5]; 75 mg, FAS): 1.76 bpm
ABPM Max (0.5-6.5 h) HR Change from Baseline to Day 28, Treatment Difference Vibegron-Placebo ([5]; 75 mg, FAS): 1.48 bpm
ABPM Max (0.5-6.5 h) SBP Change from Baseline to Day 28, LSMean ([5]; 75 mg, FAS): 1.96 mmHg
ABPM Max (0.5-6.5 h) SBP Change from Baseline to Day 28, Treatment Difference Vibegron-Placebo ([5]; 75 mg, FAS): 1.67 mmHg
ABPM Mean 24 H DBP Change from Baseline to Day 28, LSMean ([5]; 75 mg, FAS): 0.51 mmHg
ABPM Mean 24 H DBP Change from Baseline to Day 28, Treatment Difference Vibegron-Placebo ([5]; 75 mg, FAS): −0.19 mmHg
ABPM Mean 24 H HR Change from Baseline to Day 28, LSMean ([5]; 75 mg, FAS): 0.80 bpm
ABPM Mean 24 H HR Change from Baseline to Day 28, Treatment Difference Vibegron-Placebo ([5]; 75 mg, FAS): 0.96 bpm
ABPM Mean 24 H SBP Change from Baseline to Day 28, LSMean ([5]; 75 mg, FAS): 0.60 mmHg
ABPM Mean 24 H SBP Change from Baseline to Day 28, Treatment Difference Vibegron-Placebo ([5]; 75 mg, FAS): 0.57 mmHg
ABPM Mean Daytime DBP Change from Baseline to Day 28, LSMean ([5]; 75 mg, FAS): 0.50 mmHg
ABPM Mean Daytime DBP Change from Baseline to Day 28, Treatment Difference Vibegron-Placebo ([5]; 75 mg, FAS): −0.04 mmHg
ABPM Mean Daytime HR Change from Baseline to Day 28, LSMean ([5]; 75 mg, FAS): 1.08 bpm
ABPM Mean Daytime HR Change from Baseline to Day 28, Treatment Difference Vibegron-Placebo ([5]; 75 mg, FAS): 0.88 bpm
Mean Daytime ABPM SBP Change from Baseline to Day 28, LSMean ([5]; 75 mg, FAS): 0.82 mm Hg
Mean Daytime ABPM SBP Change from Baseline to Day 28, Treatment Difference Vibegron-Placebo ([5]; 75 mg, FAS): 0.81 mm Hg
Change from Baseline to Day 28 for Maximum (0.5 to 6.5 hrs) ABPM SBP, LSMean ([5]; 75 mg, PPS): 1.0 mm Hg
Change from Baseline to Day 28 for Maximum (0.5 to 6.5 hrs) ABPM SBP, Treatment Difference Vibegron-Placebo ([5]; 75 mg, PPS): 1.05 mm Hg
Mean Daytime ABPM SBP Change from Baseline to Day 28, LSMean ([5]; 75 mg, PPS): 0.19 mm Hg
Mean Daytime ABPM SBP Change from Baseline to Day 28, Treatment Difference Vibegron-Placebo ([5]; 75 mg, PPS): 0.41 mm Hg
ABPM DBP Day 28 change from baseline ≥10 mmHg, subjects ([5]; Maximum (0.5-6.5 h), FAS): 9 (9.8) n (%)
ABPM HR Day 28 change from baseline ≥10 bpm, subjects ([5]; Maximum (0.5-6.5 h), FAS): 20 (21.7) n (%)
ABPM SBP Day 28 change from baseline ≥15 mmHg, subjects ([5]; Maximum (0.5-6.5 h), FAS): 6 (6.5) n (%)
ABPM DBP Day 28 change from baseline ≥10 mmHg, subjects ([5]; Mean 24-hour, FAS): 1 (1.0) n (%)
ABPM HR Day 28 change from baseline ≥10 bpm, subjects ([5]; Mean 24-hour, FAS): 3 (3.1) n (%)
ABPM SBP Day 28 change from baseline ≥15 mmHg, subjects ([5]; Mean 24-hour, FAS): 2 (2.1) n (%)
ABPM DBP Day 28 change from baseline ≥10 mmHg, subjects ([5]; Mean Daytime, FAS): 2 (2.1) n (%)
ABPM HR Day 28 change from baseline ≥10 bpm, subjects ([5]; Mean Daytime, FAS): 3 (3.1) n (%)
ABPM SBP Day 28 change from baseline ≥15 mmHg, subjects ([5]; Mean Daytime, FAS): 2 (2.1) n (%)
effects on blood pressure (overall conclusion of ABPM study) ([5]; vibegron 75 mg, 28 days): no clinically relevant effects on blood pressure
mean change of daytime ambulatory systolic blood pressure from baseline, difference from placebo (primary endpoint) ([5]; vibegron 75 mg, 28 days): less than 1 mm Hg
mean change from baseline in daytime ambulatory systolic blood pressure ([5]; vibegron 75 mg/day, 4-week treatment, full analysis set): 0.89 mmHg
mean change of 24-hour ambulatory diastolic blood pressure from baseline, lower than placebo by ([5]; vibegron 75 mg/day, 4 weeks): 0.19 mmHg
mean change of 24-hour ambulatory heart rate from baseline ([5]; vibegron 75 mg/day, 4 weeks): about 0.80
mean change of 24-hour ambulatory heart rate from baseline, higher than placebo by ([5]; vibegron 75 mg/day, 4 weeks): 0.96 bpm
mean change of 24-hour ambulatory systolic blood pressure from baseline, higher than placebo by ([5]; vibegron 75 mg/day, 4 weeks): 0.57 mmHg
mean change of daytime ambulatory diastolic blood pressure from baseline, lower than placebo by ([5]; vibegron 75 mg/day, 4 weeks): 0.04 mmHg
mean change of daytime ambulatory heart rate from baseline ([5]; vibegron 75 mg/day, 4 weeks): about 1.08 bpm
mean change of daytime ambulatory heart rate from baseline, higher than placebo by ([5]; vibegron 75 mg/day, 4 weeks): 0.88 bpm
mean increase in 24-hour ambulatory diastolic blood pressure from baseline ([5]; vibegron 75 mg/day, 4 weeks): 0.51 mmHg
mean increase in 24-hour ambulatory systolic blood pressure from baseline ([5]; vibegron 75 mg/day, 4 weeks): 0.61 mmHg and 0.60 mmHg
mean change of daytime ambulatory systolic blood pressure from baseline, higher than placebo by [5, 9]: 0.81 mmHg
mean daytime ambulatory systolic upper bound of the 90% confidence interval (Table 103) [5, 9]: 1.11 mm Hg
mean daytime ambulatory systolic blood pressure, upper bound of 90% confidence interval of difference from placebo ([5]; vibegron 75 mg/day, 4 weeks, full analysis set (Table 101)): 2.49 mm Hg
mean change of daytime ambulatory systolic blood pressure from baseline, higher than placebo by ([5]; vibegron 75 mg/day, 4 weeks, per protocol set): 0.41 mmHg
mean daytime ambulatory systolic blood pressure, upper bound of 90% confidence interval of difference from placebo ([5]; vibegron 75 mg/day, 4 weeks, per protocol set (Table 102)): 2 mm Hg
AUC(0-t) ([6]; both sexes, human, in vivo, 75 mg, read-out: AUC0-t, geometric mean (% CV)): 1.16 µg·h/mL
Cmax ([6]; both sexes, human, in vivo, 75 mg, read-out: Cmax, geometric mean (% CV)): 0.0823 µg/mL
AUC(0-inf) ([6]; both sexes, human, in vivo, oral, 75 mg, read-out: AUC0-∞, geometric mean (% CV)): 1.31 µg·h/mL
half-life ([6]; both sexes, human, in vivo, oral, 75 mg, read-out: t1/2, geometric mean (% CV) (converted)): 84 h
CL/F, geometric mean (% CV) [6, 10]: 57.3 (30.1) L/hr
V/F, geometric mean (% CV) [6, 10]: 6140 (47.0) L
CL/F, geometric mean (% CV) [6, 11]: 57.2 (39.7) L/hr
V/F, geometric mean (% CV) [6, 11]: 6930 (48.6) L
